Results from patent US11052060B2, “Compounds and methods for treating autoimmunity” (ImmunoMolecular Therapeutics, INC., priority 2018, dated 2021).

Tests used:
α-gliadin/DQ8 = α-gliadin/DQ8 (Homo sapiens, UniProt P01909+P01920); test: Inhibition of DQ8 antigen presentation to gliadin-responsive CD4 TCR transductant (489), secreted IL-2 by ELISA; type: cell-based; settings: for 489 IC50 (α-gliadin/DQ8) / IC50: 489 TCR transductant, HLA-DQ8 antigen presenting cells with α-gliadin peptide, secreted IL-2; for inhibition of gliadin-responsive CD4 TCR: FIG. 3B / FIG. 4B, secreted IL-2 by ELISA, result in words
α-gliadin/DQ8, sequence (P01920 33-261 limits assumed, other chains not shown): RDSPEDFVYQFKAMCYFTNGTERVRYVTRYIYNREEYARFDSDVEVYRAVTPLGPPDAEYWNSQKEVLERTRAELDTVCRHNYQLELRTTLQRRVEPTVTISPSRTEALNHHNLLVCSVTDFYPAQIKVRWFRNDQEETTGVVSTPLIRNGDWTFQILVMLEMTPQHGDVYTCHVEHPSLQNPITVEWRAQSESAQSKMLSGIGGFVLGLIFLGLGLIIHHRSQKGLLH
Description: (§1) Inhibition of DQ8 antigen presentation by compounds of this disclosure was tested and compared in vitro. HLA-DQ8 antigen presenting cells were cultured with a fixed concentration of peptide and a concentration of one of the tested compounds for 4 hours. TCR transductants were then added to each culture condition and cultured overnight. Secreted IL-2 from the TCR transductant was measured by ELISA for each condition.
(§2) In these figures, 0 represents the TCR transductant response to peptide without the addition of the test compound.

insulin/DQ8 = insulin/DQ8 (Homo sapiens, UniProt P01909+P01920); test: Inhibition of DQ8 antigen presentation to insulin-responsive CD4 TCR transductant (Clone 5), secreted IL-2 by ELISA; type: cell-based; settings: for Clone 5 IC50 (insulin/DQ8) / IC50: Clone 5 TCR transductant, HLA-DQ8 antigen presenting cells with insulin peptide, secreted IL-2; for inhibition of an insulin-responsive CD4 T cell receptor (TCR) transductant: FIG. 3A / FIG. 4A, secreted IL-2 by ELISA, result in words
insulin/DQ8, sequence (P01920 33-261 limits assumed, other chains not shown): as above
Description: as §1, §2

Row | SMILES | 489 IC50 (α-gliadin/DQ8) (α-gliadin/DQ8) | Clone 5 IC50 (insulin/DQ8) (insulin/DQ8) | IC50 (α-gliadin/DQ8) | inhibition of gliadin-responsive CD4 TCR (α-gliadin/DQ8) | IC50 (insulin/DQ8) | inhibition of an insulin-responsive CD4 T cell receptor (TCR) transductant (insulin/DQ8)
1 | CC(N)(Cc1ccc(O)cc1)C(=O)O (stereo not drawn) [α-methyltyrosine, 2-amino-3-(4-hydroxyphenyl)-2-methylpropanoic acid] | No inhibition | No inhibition |  |  |  | 
2 | C[C@@](N)(Cc1ccc(O)c(O)c1)C(=O)O (stereo in doubt) [α-methyldopa, 2-amino-3-(3,4-dihydroxyphenyl)-2-methylpropanoic acid] |  |  | 17.7 µM | concentration-dependent inhibition | 3.4 µM | concentration-dependent inhibition
3 | CC(C)(C)C(N)(Cc1ccc(O)c(O)c1)C(=O)O.Cl (centres unmarked) [Compound F994-0666] |  |  |  | concentration-dependent inhibition |  | concentration-dependent inhibition
4 | CC(N)[C@H](O)c1ccc(O)c(O)c1 (stereo in doubt) [α-methylnorepinephrine, 4-(2-amino-1-hydroxypropyl)benzene-1,2-diol] | No inhibition | No inhibition |  |  |  | 
5 | CCOC(=O)C(C)(N)Cc1ccc(O)c(O)c1 (stereo not drawn) [α-methyldopa ethyl ester, Ethyl-2-amino-3-(3,4 dihydroxyphenyl)-2-methylpropanoate] |  |  | 7.8 µM |  | 5.8 µM | 
6 | CC(N)(Cc1ccccc1)C(=O)O (stereo not drawn) [α-methylphenylalanine, 2-amino-2-methyl-3-phenylpropanoic acid] | No inhibition | No inhibition |  |  |  | 
